Assay results from article PMC12203613 (Journal of Agricultural and Food Chemistry, 2025).

Tests used:
Assay type in all cases: biochemical
[1] = target: T1, OsHPPD (4-hydroxyphenylpyruvate dioxygenase) (Oryza sativa, UniProt Q6H4V1); assay: coupled enzyme assay
T1 sequence (Q6H4V1 2-446): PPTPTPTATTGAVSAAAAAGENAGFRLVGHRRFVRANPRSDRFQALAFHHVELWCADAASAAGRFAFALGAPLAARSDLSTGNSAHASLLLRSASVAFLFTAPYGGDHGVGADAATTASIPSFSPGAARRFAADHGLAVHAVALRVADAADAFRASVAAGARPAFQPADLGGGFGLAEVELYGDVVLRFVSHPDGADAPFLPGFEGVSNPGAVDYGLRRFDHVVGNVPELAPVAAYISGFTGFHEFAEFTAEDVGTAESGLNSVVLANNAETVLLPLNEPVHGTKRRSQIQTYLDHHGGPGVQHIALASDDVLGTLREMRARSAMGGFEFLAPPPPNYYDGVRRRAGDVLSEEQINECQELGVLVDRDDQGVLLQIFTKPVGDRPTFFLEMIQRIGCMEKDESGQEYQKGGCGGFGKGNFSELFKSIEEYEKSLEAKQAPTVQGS

[2] = target: T2, AtHPPD (4-hydroxyphenylpyruvate dioxygenase) (Arabidopsis thaliana, UniProt P93836); assay: coupled enzyme assay
T2 sequence (P93836 1-445): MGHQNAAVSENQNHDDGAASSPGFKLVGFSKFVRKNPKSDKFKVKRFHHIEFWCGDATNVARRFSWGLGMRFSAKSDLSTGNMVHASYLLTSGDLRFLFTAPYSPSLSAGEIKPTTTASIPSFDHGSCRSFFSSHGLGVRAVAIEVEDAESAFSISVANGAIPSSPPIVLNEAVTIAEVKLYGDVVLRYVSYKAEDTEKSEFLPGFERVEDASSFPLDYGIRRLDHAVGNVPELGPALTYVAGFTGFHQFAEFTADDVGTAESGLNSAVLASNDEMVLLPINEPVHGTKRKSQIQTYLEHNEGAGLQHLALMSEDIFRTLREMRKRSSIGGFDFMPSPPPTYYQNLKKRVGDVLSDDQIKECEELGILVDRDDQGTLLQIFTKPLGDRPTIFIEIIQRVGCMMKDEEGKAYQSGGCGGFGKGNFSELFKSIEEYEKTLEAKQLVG

[3] = target: T2, AtHPPD (4-hydroxyphenylpyruvate dioxygenase); assay: X-ray co-crystal structure at […] Å
[4] = target: T1, OsHPPD (4-hydroxyphenylpyruvate dioxygenase); assay: X-ray co-crystal structure at […] Å

SMILES	Ki [1] [nM]	Ki [2] [nM]	Ki [3] [nM]	Ki [4] [nM]
CS(=O)(=O)c1ccc(C(=O)C2C(=O)CCCC2=O)c([N+](=O)[O-])c1 [mesotrione]	26.5 ± 10.8	22.1 ± 4.5		
Cc1nnc(NC(=O)c2ccc(C(F)(F)F)n3c(CS(=O)(=O)C(C)C)nnc23)o1 [iptriazopyrid, 3-[(isopropylsulfonyl)-methyl]-N-(5-methyl-1,3,4-oxadiazol-2-yl)-5-(trifluoromethyl)-[1,2,4]-triazolo[4,3-a]-pyridine-8-carboxamide]			24.3 ± 0.3	33.3 ± 3.3
